Literature values, collected in patent publication US5468754A, “11,7 substituted camptothecin derivatives and formulations of 11,7 substituted camptothecin derivatives and methods for uses thereof” (priority 1994, dated 1995).
Entries after “also recorded” stand apart in the source; their conditions may differ. Read-outs that look alike come from different tables or passages of the source.

Columns and labels:
[1] = Ohe et al; 120 hr infusion Q3 wks, 40 mg/m2/d (5-40); cited from earlier work
cervix = conditions: cited from earlier work
[2] = tested on: Untreated Non Small Cell Lung Cancer; conditions: Fukuoka et al; 100 mg/m^2; 73 pts; cited from earlier work
[3] = cited from earlier work
esophagus = conditions: Culine et al, 90 min, 150 mg/m2/wk (50-150); cited from earlier work
[4] = compared with parent compound camptothecin; cited from earlier work
Small Cell Lung Cancer = conditions: Negoro et al, 100 mg/m^2/week, 41 pts, cited from earlier work
[5] = tested on: Topoisomerase I, purified from human colon carcinoma cells; conditions: cited from earlier work
Colon cancer = conditions: Shimada et al; 100 mg/m^2/week or 150 mg/m^2/Q 2 wks; 17 pts; cited from earlier work
renal = conditions: Culine et al, 90 min, 150 mg/m2/wk (50-150); cited from earlier work
[6] = 5-day continuous intravenous infusion; cited from earlier work
[7] = tested on: Refractory or Relapsed Small Cell Lung Cancer; conditions: Masudu et al; 100 mg/m^2 weekly; 16 pts; cited from earlier work
[8] = cited from earlier work; remark: listed apart in the source
Breast = conditions: Clavel et al, 90 min QDx3 Q21 days; cited from earlier work
[9] = compared with parent compound camptothecin; cited from earlier work; remark: listed apart in the source
Colon Ca = conditions: cited from earlier work
ovarian = conditions: Culine et al, 90 min, 150 mg/m2/wk (50-150); cited from earlier work
[10] = tested on: Topoisomerase I, purified from calf thymus; conditions: cited from earlier work
Cervical cancer = conditions: Takeuchi et al; 100 mg/m^2 weekly, 150 mg/m^2 weeks; 69 pts; cited from earlier work
[11] = tested on: Human lung cancer cell lines; conditions: human lung cancer cell lines vs normal cells; cited from earlier work
[12] = tested on: xenografts of human tumors; conditions: Kawato et al., nude mice; cited from earlier work
Mesothelioma = conditions: Clavel et al, 90 min QDx3 Q21 days; cited from earlier work
[13] = cited from earlier work; remark: listed apart in the source
[14] = patients; cited from earlier work
Leukemia/Lymphoma = conditions: Ohono et al, cited from earlier work
[15] = Negoro et al, Small Cell Lung Cancer, 100 mg/m^2/week
[16] = Ohono et al, Leukemia/Lymphoma, 62 pts
[17] = Shimada et al, Colon cancer, 17 pts
[18] = Takeuchi et al, Cervical cancer, 69 pts
[19] = Clavel et al, 90 min, QDx3 Q21 days, 115 mg/m2/d (33-115), 37 pts
[20] = Culine et al, 90 min, Q21 days, 150 mg/m2/wk (50-150), 59 pts
[21] = Negoro et al, 30 min infusion weekly, 100 mg/m2 (50-150), 17 pts
[22] = Ohe et al, 120 hr CI Q3 wks, 40 mg/m2/d (5-40), 36 pts
[23] = Rothenberg et al, QWx4 Q42 days, 180 mg/m2/wk (50-180), 32 pts
[24] = Rowinsky et al, 90 min infusion Q21 day, 240 mg/m2 (100-345), 32 pts

CCc1c2c(nc3ccc(OC(=O)N4CCC(N5CCCCC5)CC4)cc13)-c1cc3c(c(=O)n1C2)COC(=O)[C@]3(O)CC [CPT-11]
Tumor response [1]: None | Tumor response (partial responses) (cervix; Culine et al, cervix, 90 min, 150 mg/m2/wk (50-150)): 1 PR | Tumor response (partial responses) (cervix; Rowinsky et al, Cervix Ca, 90 min infusion Q21 day, 240 mg/m2 (100-345)): 1 PR | RESPONSE (PRs) [2]: 31.9% | RESPONSE (PRs, patients) [2]: 23/72 | Toxicity ([3]; Fukuoka et al, Untreated Non Small Cell Lung Cancer, 100 mg/m^2): Neutropenia; also recorded: diarrhea; also recorded: nausea; also recorded: vomiting; also recorded: anorexia; also recorded: alopecia | pneumonitis ([3]; Masudu et al, 100 mg/m^2 weekly, 16 pts): 12.5% | Toxicity ([3]; Masudu et al, Refractory or Relapsed Small Cell Lung Cancer, 100 mg/m^2 weekly): Neutropenia; also recorded: diarrhea | N/V [3, 15]: 61.5% | alopecia [3, 15]: 40.0% | diarrhea [3, 15]: 53.8% | Gastrointestinal [3, 16]: 76% | Toxicity [3, 16]: Thromocytopenia | N/V [3, 17]: 35% | diarrhea [3, 17]: 24% | N/V [3, 18]: 51% | alopecia [3, 18]: 38.1% | diarrhea [3, 18]: 39.1% | Tumor response (partial responses) (esophagus): 1 PR | Toxicity [4]: less sporadic toxicities | RESPONSE (Small Cell Lung Cancer; 2 CRs and 7 PRs): 33.3% | RESPONSE (CRs) (Small Cell Lung Cancer): 2 CRs | RESPONSE (PRs) (Small Cell Lung Cancer): 7 PRs | inhibition of Topoisomerase I [5]: inhibited | RESPONSE (Colon cancer): 46% | RESPONSE (PR, patients) (Colon cancer): 6/17 | Tumor response (partial responses) (renal): 1 PR | conversion of CPT-11 to SN38 [6]: saturable process | RESPONSE (PRs) [7]: 47% | RESPONSE (PRs, patients) [7]: 7/15 | Fractional amount of lactone species, CPT-11 CpMax Based ([8]; 50 mg/m2 single dose I.V.): 0.51 | Fractional amount of lactone species, CPT-11 CpMax Based ([8]; 80 mg/m2 single dose I.V.): 0.44 | Fractional amount of lactone species, CPT-11 CpMax Based ([8]; 100 mg/m2 single dose I.V.): 0.53 | Fractional amount of lactone species, CPT-11 CpMax Based ([8]; 125 mg/m2 single dose I.V.): 0.55 | Fractional amount of lactone species, CPT-11 CpMax Based ([8]; 150 mg/m2 single dose I.V.): 0.42 | Fractional amount of lactone species, CPT-11 CpMax Based ([8]; 180 mg/m2 single dose I.V.): 0.42 | overall fractional concentration of the lactone species ([8]; through a range of doses, total AUC and CpMax data): fairly constant through a range of doses | Tumor response (partial responses) (Breast): 1 PR | antitumor activity [9]: retain the significant antitumor activity of the parent compound | Tumor response (partial responses) (Colon Ca; Rothenberg et al, QWx4 Q42 days, 180 mg/m2/wk (50-180)): 2 PRs | Tumor response (partial responses) (Colon Ca; Rowinsky et al, 90 min infusion Q21 day, 240 mg/m2 (100-345)): 1 PR | Tumor response (partial responses) (ovarian): 1 PR | inhibition of Topoisomerase I [10]: inhibited | RESPONSE (CR) (Cervical cancer): SCR | RESPONSE (PR) (Cervical cancer): 8 PR | RESPONSE (RR) (Cervical cancer): 23.6% | conversion of CPT-11 to SN38 [11]: convert less CPT-11 to SN38 than normal cells | sensitivity of human tumors vs their ability to produce SN38 [12]: independent of their ability to produce SN38 | Tumor response (partial responses) (Mesothelioma): 1 PR | Toxicity [13, 19]: diarrhea; also recorded: nausea; also recorded: vomiting; also recorded: alopecia | Toxicity (Dose Limiting Toxicity) [13, 19]: Neutropenia | Toxicity [13, 20]: vomiting; also recorded: alopecia; also recorded: fatigue; also recorded: stomatitis | Toxicity (Dose Limiting Toxicity) [13, 20]: Neutropenia; also recorded: diarrhea | Toxicity [13, 21]: N/V and alopecia and liver | Toxicity (Dose Limiting Toxicity) [13, 21]: Neutropenia; also recorded: Diarrhea | Toxicity [13, 22]: nausea; also recorded: vomiting; also recorded: thromobo-; also recorded: anemia; also recorded: liver | Toxicity (Dose Limiting Toxicity) [13, 22]: Diarrhea | major reported, dose-limiting toxicities ([13]; Phase I and Phase II clinical trials of CPT-11): Neutropenia and diarrhea | Toxicity [13, 23]: Neutropenia; also recorded: nausea; also recorded: vomiting; also recorded: alopecia | Toxicity (Dose Limiting Toxicity) [13, 23]: Diarrhea | Toxicity [13, 24]: vomiting and diarrhea and pain and flushing | Toxicity (Dose Limiting Toxicity) [13, 24]: Neutropenia | variability of metabolic conversion of CPT-11 to SN38 [14]: large range of interpatient variability; also recorded: varies from patient to patient | RESPONSE (RR) (Leukemia/Lymphoma; 20 mg/m^2 bid x7): 25 % RR | RESPONSE (PR) (Leukemia/Lymphoma; 40 mg/m^2 x5): 34 % PR | RESPONSE (Leukemia/Lymphoma; 200 mg Q3): No resp.
